The values below are quoted from earlier work in patent publication US9962342B1, “Pharmaceutical composition containing guaifenesin and application thereof” (Sunny Pharmtech Inc., priority 2017, dated 2018).

The structures appear in SMILES notation.

The conditions of this data set: in vivo.

Regarding `COc1ccccc1OCC(O)CO` (stereo not shown) [Guaifenesin], the half-life result was “approximately 1 hour”.
